Reference: US10316021B2, “Heteroarylphenoxy benzamide kappa opioid ligands” (Pfizer Inc., priority 2016, dated 2019)
Where two headings read alike, the source gives them in different places.

Columns and labels:
[1] = In vitro intrinsic clearance in human liver microsomes; format: in vitro ADME; conditions: for CLint scaled at 2 μM: human, read-out: HLM CLint
Procedure: Determination of In Vitro Intrinsic Clearance in Human Liver Microsomes:
Compounds were prepared as solutions in methanol. The final concentration of methanol in the incubation media was 0.2% (v/v). […] The total incubation volume was 1 mL. The reaction mixture was pre-warmed at 37° C. for 2 min before adding NADPH (1.2 mM). Aliquots (75 μL) of the reaction mixture at 0, 5, 10, 15, and 30 min were added to acetonitrile (200 μL) containing internal standard (terfenadine)(0.05 μg/mL), and the samples were centrifuged at 2500 g for 5 min prior to liquid chromatography/tandem mass spectrometry (LC/MS-MS) analysis of each compound using multiple reaction monitoring (MRM). For control experiments, NADPH was omitted from these incubations.
The microsomal half-life (t1/2) was obtained from a log-linear plot of the substrate depletion vs incubation time and was scaled to hepatic intrinsic clearance (CLint) using the following equation, in which the term t1/2 refers to the in vitro half-life: […]

[2] = Shake flask Log D (SFLogD) determination, pH 7.4; format: physicochemical; conditions: for logD: shake flask, octan-1-ol / 0.1 M sodium phosphate buffer
Procedure: Shake Flask Log D (SF Log D) Determination:
The Log D determinations were carried out in a similar manner as described by Hay et al. Drug Metabolism and Disposition 37(9), 1864-1870, 2009, the procedure of which is generally described below.
Log D(7.4) Determination. The distribution coefficient of the test compounds between octan-1-ol and 0.1 M sodium phosphate buffer, pH 7.4, was determined by the shake flask methodology in an automated manner. 0.3 mg of compound was dissolved in 300 μL of octan-1-ol and aliquoted in duplicate into a 96-well block. Three hundred microliters of presaturated buffer (2 liters of buffer presaturated with 10 mL of octan-1-ol) was added to the wells, and the solution was vigorously mixed. After centrifugation, the two phases were separated. Ten microliters of a 1:200 dilution of the octan-1-ol layer and 10 μL of a 1:20 dilution of the buffer layer were directly injected onto the high-performance liquid chromatography (HPLC) (for example using an appropriate C18 column, isocratic elution with 90% methanol, 10% water, 2 mM ammonium acetate, and 0.03% formic acid at flow rate of 2 mL/min). The peak areas were corrected for the dilution factors, and the following calculation was applied to determine the mean log D value at pH 7.4 (log D(7.4)): […]

[3] = target: T1, human kappa opioid receptor (hKOR) (Homo sapiens, UniProt P41145); assay: Kappa radioligand binding assay ([3H]diprenorphine, CHO cell membranes); conditions: for Selectivity hMOR/hKOR: selectivity ratio calculated by dividing the hMOR Ki by the hKOR Ki
T1 construct: expressed in transfected cells; host or cells: CHO cells
T1 sequence (P41145 whole entry): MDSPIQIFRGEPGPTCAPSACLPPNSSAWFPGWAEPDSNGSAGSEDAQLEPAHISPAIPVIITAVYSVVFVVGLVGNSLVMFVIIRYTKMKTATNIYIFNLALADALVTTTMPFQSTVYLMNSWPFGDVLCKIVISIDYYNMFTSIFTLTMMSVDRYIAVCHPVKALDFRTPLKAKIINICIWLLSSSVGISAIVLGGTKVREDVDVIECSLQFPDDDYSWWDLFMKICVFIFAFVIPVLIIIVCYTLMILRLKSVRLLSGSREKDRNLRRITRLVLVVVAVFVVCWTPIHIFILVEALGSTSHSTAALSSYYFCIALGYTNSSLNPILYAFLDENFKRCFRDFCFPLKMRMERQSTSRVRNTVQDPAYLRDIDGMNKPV
Method in brief: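 Membranes from CHO cells expressing human kappa receptor incubated 1 h at room temperature with compound and 0.6 nM [3H]diprenorphine in 50 mM Tris pH 7.4, 1 mM EDTA, 5 mM MgCl2. Nonspecific binding defined with 10 μM naltrexone; filtration, scintillation counting; IC50 from 4-parameter fit converted to Ki via Cheng-Prusoff.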

[4] = system: major CYP450 isozymes; assay: CYP450 DDI cocktail assay (reversible inhibition, all isozymes together); format: in vitro ADME, human; conditions: for risk of reversible inhibition of CYP450 isozymes, in words: 3 μM; for >25% reversible inhibition of CYP activity at 3 μM (CYP): CYP450 DDI cocktail assay, isozymes inhibited in brackets
Procedure: Multi-Point Cocktail DDI IC50 Assay Conditions:
Standard marker activity substrates were incubated with pooled human liver microsomes (HL-MIX-102) in the presence of NADPH (1.2 mM) in 100 mM KH2PO4, pH 7.4 containing 3.3 mM MgCl2 at 37° C. The incubation volume was 0.1 mL, utilizing a 384-well plate format. The microsomal protein concentrations (0.1 mg/mL) and P450 concentration (0.035 μM) was used for each probe substrate at the following concentrations [tacrine (1A2) 2 uM; diclofenac (2C9) 5 μM; dextromethorphan (2D6) 5 μM; midazolam (3A4) 2 μM; taxol (2C8) 5 μM; S-mephenytoin (2C19) 40 μM]. Substrate concentrations were near Km values that had been previously determined and incubation times were selected based on determinations of reaction velocity linearity. Each test compound/prototypical inhibitors was tested at a concentration range of 0-30 μM in triplicate, in final vehicle solvent concentrations of 0.9% acetonitrile and 0.1% DMSO. Incubations were initiated with the addition of NADPH. At the end of the incubation period, termination solvent containing internal standard was added, the terminated incubation mixture was centrifuged to precipitate microsomal protein. Samples were directly injected on an HPLC-MS/MS system. A Biomek FX workstation was used for liquid handling and sample incubation.
Reversible CYP450 inhibitory potential for each compound was assessed using the CYP450 DDI cocktail assay, measuring the inhibition of the metabolism of a known probe substrate of each of the major CYP isozymes at 3 μM concentration.

[5] = system: THLE-2 (transformed human liver epithelial) cells; assay: Transformed human liver epithelial (THLE) assay, ATP depletion 72 h; format: cell-based; conditions: for cytotoxicity in THLE cell line, in words: cellular ATP; for IC50: Homo sapiens, read-out: THLE
Procedure: Transformed Human Liver […] (THLE) Assay:
ATP depletion was measured after 72 hours of exposure to a particular concentration of the chemical. […] Cells were cultured in T175 Human fibronectin/collagen/bovine serum albumin coated flasks. […] Plates were incubated for 24 hours at 37° C., 5% CO2.
All compounds were initially solubilized in 100% DMSO. This dosing scheme contained 32 compounds per plate. Stock plates were prepared using 1 μl aliquots of 100× compound/well (30 mM-0.058 mM). The plates were prepared for dosing by adding 99 μl of cell culture media and mixing. Test compounds were added to cell culture plates by aspirating overnight culture media and replacing with 25 μL/well of media containing test compound using the layout outlined below. The final concentration of DMSO in each well was 1.0%. […] The ATP concentration was determined by reading luminescence using a Wallac Envision plate reader (Perkin Elmer, Waltham, Mass., USA). Percent of viable cells relative to no-drug treated controls was determined for each well.

[6] = pH 7.4, human liver microsomal intrinsic clearance
[7] = Table 20, radioligand binding, read-out: hKOR binding assay Ki

Structure (SMILES)	CLint scaled at 2 μM [1, 6] [L/h/kg]	Log D, in words [2]	logD [2]	Ki [3, 7] [nM]	Selectivity hMOR/hKOR [3]	risk of reversible inhibition of CYP450 isozymes, in words [4]	>25% reversible inhibition of CYP activity at 3 μM (CYP) [4]	cytotoxicity in THLE cell line, in words ([5]; 72 hours)	IC50 ([5]; THLE-2, ATP cell viability, 72 hours) [nM]	Ki ([3]; hKOR binding assay Ki, Table 20, radioligand binding) [nM]	IC50 ([5]; THLE-2, 72 h) [nM]	hepatic / metabolic clearance in human liver microsomes, in words [1]	CLint scaled at 2 μM ([1]; pH 7.4, human liver microsomes) [L/h/kg]	selectivity for KOR over MOR, in words [3]	Ki ([3]; Table 19, geometric mean of 2-6 determinations unless otherwise indicated (Example 3: >=7), read-out: hKOR binding assay Ki) [nM]	Ki ([3]; radioligand binding, [3H]diprenorphine, read-out: hKOR Ki) [nM]
Cc1cc(C)cc([C@@H]2CCCN2Cc2ccc(Oc3ccc(C(N)=O)cc3F)cc2)c1 [Comparator E, reference compound]	1.8	significantly higher Log D values	4.6	0.2	39	a risk for reversible DDI at CYP450 isozymes 2C8, 2C9, 3A4, and/or 2D6	yes (2C8)	cytotoxicity at lower concentrations	26000							
NC(=O)c1ccc(Oc2ccc(CN3CCC[C@H]3c3cccc(F)c3)cc2)c(F)c1 [Comparator F]	2.16	significantly higher Log D values	3.7		35		no	cytotoxicity at lower concentrations		1.1	37000					
Cc1nn(C)cc1[C@@H]1CCCN1Cc1ccc(Oc2ccc(C(N)=O)cc2)cc1 [Example 11, 4-(4-{[(2S)-2-(1,3-Dimethyl-1H-pyrazol-4-yl)pyrrolidin-1-yl]methyl}phenoxy)benzamide]	1.2	much more in line with drugs that progress to Phase II	1.9	1.2	42	no significant risk of reversible inhibition	no	little to no cytotoxicity			> 300000	surprisingly low intrinsic metabolic turnover rates	< 1.2	more selective than the phenyl examples, Comparators A and B	1.21	1 to 3
